According to US20170049726A1, “METFORMIN IN TREATMENT OF NEUROBLASTOMA” (UNIVERSITY OF SOUTH CAROLINA, priority 2015, published 2017):

Legend:
[1] = system: sox2; experiment: Western blot of stem cell marker protein sox2 in metformin-treated SK-N-BE(2) cells; assay type: cell-based, human; settings: metformin 1, 10 and 20 mM, 2 days, vs untreated control
Protocol: (§1) SH-SY5Y, IMR-32, SK-N-BE(2) and SKNF-1 human neuroblastoma cells were purchased from The American Type Culture Collection (ATCC; Manassas, Va.), and NGP cells were kind gift from Garrett M. Brodeur (The Children's Hospital of Philadelphia, Philadelphia, Pa.). Cells were maintained as monolayer in Dulbecco's Modified Eagle's Medium (DMEM) containing 10% fetal bovine serum (FBS; Atlanta Biologicals, Lawrenceville, Ga.) and 1% antibiotic-antimycotic solution (100 unit/ml penicillin, […]; Gibco, Grand Island, N.Y.) at 37° C. in a humidified incubator with 5% CO2. For all the experiments, cell culture passages from 4-12 were used.
(§2) Cells, either from monolayer or from spheroids, were dissociated by trypsinization, washed with 1× phosphate buffered saline (PBS), pH 7.5, and lysed with 1× cell lysis buffer (Cell Signaling Technology, Danvers, Mass.) containing phenylmethylsulfonyl fluoride (PMSF) and protease inhibitors (aprotinin and leupeptin) for 30 min on ice. […] Protein concentration was determined by bicinchoninic acid method using BCA protein assay kit (Pierce/Thermo-scientific, Waltham, Mass.). Equal amount of proteins were diluted with 5×Laemmli samples loading buffer, boiled for five minutes, separated on sodium dodecyl sulfate (SDS)-polyacrylamide gel, and analyzed by Western blotting. […]

[2] = system: nanog; experiment: Western blot of stem cell marker protein nanog in metformin-treated SK-N-BE(2) cells; assay type: cell-based, human; settings: metformin 1, 10 and 20 mM, 2 days, vs untreated control
Protocol: as §1, §2

[3] = system: oct4; experiment: Western blot of stem cell marker protein oct4 in metformin-treated SK-N-BE(2) cells; assay type: cell-based, human; settings: metformin 1, 10 and 20 mM, 2 days, vs untreated control
Protocol: as §1, §2

[4] = system: SK-N-BE(2) cells; experiment: Immunofluorescence staining of cleaved caspase-3 and sox2 in SK-N-BE(2) monolayer cells; assay type: cell-based, human; settings: metformin 10 mM, 2 days
Protocol: Neuroblastoma cells grown in Lab-TekII chamber slides (Fisher Scientific, Pittsburgh, Pa.) were treated with metformin in complete culture medium. After treatments, cells were washed with 1×PBS, fixed with 4% paraformaldehyde/PBS for 20 min, and incubated in 1×PBS buffer containing 0.1M glycine and 0.3% Triton X-100 for 30 min at room temperature. Cells were washed with 1×PBS for 4 times (10 min each) and blocked with 5% immunoglobulin (IgG)-free bovine serum albumin (BSA; Jackson ImmunoResearch Laboratories, West Grove, Pa.) in 1×PBS for overnight at 4° C. Cells were incubated with antibodies raised against sox2, oct4 and nanog, and active form of caspase-3 diluted in 2.5% BSA+0.3% Triton X-100 in PBS for overnight at 4° C. Primary antibodies were detected with secondary antibodies conjugated with AlexaFluor-488 or AlexaFluor-568 for 2 h at room temperature. After washing with 1×PBS, cells were mounted with antifade Vectashield™ mounting media (Vector Laboratories, Burlingame, Calif.), and signals were visualized under Nikon™-E600 fluorescence microscope. Nuclei were stained with 4′, 6-diamidino-2-phenylindole (DAPI; Sigma). […]

[5] = system: SK-N-BE(2) cells; experiment: Primary spheroid formation assay; assay type: cell-based, human; settings: 20 days
Protocol: (§3) For spheroid formation, adherent cells were trypsin digested (0.25% Trypsin-EDTA) for 3-4 min at 37° C., washed and suspended in the serum-free stem cell specific medium [DMEM/F-12 medium (Lonza, Switzerland) supplemented with 1% N-2 supplement, 2% B-27 without vitamin A, 20 ng/ml human recombinant epidermal growth factor (hrEGF), 20 ng/ml human recombinant basic fibroblast growth factor (bFGF) and 1% antibiotic-antimycotic solution; all from Gibco]. The dispersed single cells were plated at density of 1,000 cells/well in Costar ultra-low attachment six-well plates (Corning Inc., Corning, N.Y.), and treated with indicated concentrations of metformin. The stock solution of metformin (MP Biomedicals, Solon, Ohio) was freshly prepared in sterile triple distilled water before each experiment. Cells treated with equal volume of vehicle were used as control. Cell culture medium was changed on every fourth day. […]
(§4) To test the effect of metformin in neuroblastoma spheroid formation, SK-N-BE(2) cells were grown in stem cell specific medium on ultra-low attachment plates and the growth of spheroid formation was monitored For spheroid formation assays, SK-N-BE(2) cells were seeded at density of 1000 cells per well in six-well plate in stem cell-specific medium with or without metformin (0.1, 0.5, 1, 10 and 20 mM). After 20 days, pictures of formed spheroids were taken and the number of spheroids equal to or larger than 100 μm in size (termed primary spheroids) was counted (FIG. 7 at A and B). […] Secondary spheroid formation (as an indicator of self-renewal potential of neuroblastoma spheres) was analyzed. After 20 days, the number of formed secondary spheroids (equal or larger than 100 μm in size) was counted and plotted (FIG. 7 at C).

[6] = system: SK-N-BE(2) cells; experiment: Secondary spheroid formation assay (self-renewal); assay type: cell-based, human; settings: metformin at lower concentration (0.1 mM), 20 days
Protocol: as §3, with “metformin.” for “metformin. The stock solution of metformin (MP Biomedicals, Solon, Ohio) was freshly prepared in sterile triple distilled water before each experiment. Cells treated with equal volume of vehicle were used as control. Cell culture medium was changed on every fourth day.”
as §4, with “After 20 days, the number of formed secondary spheroids (equal or larger than 100 μm in size) was counted and plotted (FIG. 7 at C).” left out

[7] = system: SK-N-BE(2) spheroids; experiment: Immunofluorescence of cleaved caspase-3 in SK-N-BE(2) spheroids; assay type: cell-based, human; settings: metformin-treated SK-N-BE(2) spheroids
Protocol: Neuroblastoma cells grown in Lab-TekII chamber slides (Fisher Scientific, Pittsburgh, Pa.) were treated with metformin in complete culture medium. After treatments, cells were washed with 1×PBS, fixed with 4% paraformaldehyde/PBS for 20 min, and incubated in 1×PBS buffer containing 0.1M glycine and 0.3% Triton X-100 for 30 min at room temperature. Cells were washed with 1×PBS for 4 times (10 min each) and blocked with 5% immunoglobulin (IgG)-free bovine serum albumin (BSA; Jackson ImmunoResearch Laboratories, West Grove, Pa.) in 1×PBS for overnight at 4° C. Cells were incubated with antibodies raised against sox2, oct4 and nanog, and active form of caspase-3 diluted in 2.5% BSA+0.3% Triton X-100 in PBS for overnight at 4° C. Primary antibodies were detected with secondary antibodies conjugated with AlexaFluor-488 or AlexaFluor-568 for 2 h at room temperature. After washing with 1×PBS, cells were mounted with antifade Vectashield™ mounting media (Vector Laboratories, Burlingame, Calif.), and signals were visualized under Nikon™-E600 fluorescence microscope. Nuclei were stained with 4′, 6-diamidino-2-phenylindole (DAPI; Sigma).

[8] = system: tumors generated from SK-N-BE(2) spheroids; experiment: In vivo xenograft of tumors generated from SK-N-BE(2) spheroids; parameters: species or system athymic nude mice (nu/nu); settings: 100 mg/kg daily by oral gavage, 21 days of treatment, nude mice
Protocol: SK-N-BE(2) neuroblastoma spheroids (15-day-old) were dissociated by trypsinization, washed with stem cell specific medium and counted. 1×10^5 cells were mixed (1:1 volume) with EGF-reduced matrigel (BD Bioscience, San Jose, Calif.) to make total volume of 0.1 ml. The cell mixture (0.1 ml) was injected subcutaneously (s.c.) into flanks of 6-week-old female nude athymic mice (nu/nu mice; Charles River Laboratories, Wilmington, Mass.). The animals were housed at 25° C. with a 12-h light/12-h dark cycle in laminar flow cabinets under specific pathogen-free conditions and given sterile water and food ad libitum. Engrafted mice were inspected for tumor appearance, and tumor growth was measured on every fourth day using a caliper. Tumor volume was calculated using the ellipsoid formula (length×width×height×0.5). […]
To assess whether metformin has inhibitory effects on the tumorigenicity of neuroblastoma stem cells, tumors were generated from neuroblastoma stem cells by inoculating tumor cells from SK-N-BE(2) spheroids (15-day-old) subcutaneously in to the flank region of athymic nude mice. […] The size of tumors was measured on every fourth day, and after 21 days of metformin treatment tumors were harvested and sizes were measured.

[9] = system: SK-N-BE(2) tumors; experiment: Immunohistochemistry of cleaved caspase-3 and sox2 in SK-N-BE(2) tumor sections; assay type: in vivo, athymic nude mice (nu/nu); settings: tumors from mice treated with metformin 100 mg/kg daily oral
Protocol: For tumor tissue, paraformaldehyde-fixed paraffin-embedded tumor sections (5 μm thick) were deparaffinized in xylene, rehydrated with sequential immersion in graded ethanol (100%, 95%, 85%, 70% and 50%). Antigen unmasking was carried out by boiling slides in 10 mM sodium citrate buffer, pH 6.0, at 95° C. for 30 min. After cooling down at room temperature, sections were incubated with 0.1M glycine+0.3% Triton X-100/PBS for 30 min, and were blocked with 10% IgG-free BSA in 1×PBS for overnight at 4° C. Sections were incubated with primary antibodies diluted in 5% IgG-free BSA+0.3% Triton X-100/PBS (1:100 dilution) for overnight at 4° C. Primary antibodies were detected as described in previous paragraph. Primary antibodies used were: sox2, oct4 and nanog, and active form of caspase-3.
To determine if metformin inhibition of tumor growth resulted from apoptotic cell death in tumor stem cells, immunohistochemistry was performed by staining paraffin-embedded tumor sections with antibodies specific for active cleaved form of caspase-3 (an indicator of apoptosis) and stem cell specific marker sox2.

`CN(C)C(=N)NC(=N)N` [metformin, N′,N′-dimethylbiguanide] was tested, and the “level of sox2 protein” value [1] was “dose dependently decreased”, the “level of nanog protein” value [2] was “dose dependently decreased” and the oct4 protein expression [3] was “No change”. The “cleaved caspase-3 signals (apoptotic cell death)” value [4] was “present in both sox2-expressing and sox2-nonexpressing cells”, the “number of primary spheroids vs control” value ([5]; metformin 0.1 mM) was “similar” and the primary spheroid formation ([5]; metformin 0.5 mM and higher concentrations) was “reduced primary spheroid formation significantly”. For the same molecule, the “formation of primary spheroids (equal to or larger than 100 μm)” value ([5]; metformin 0.1, 0.5, 1, 10 and 20 mM, overall vs control) was “significantly decreased the formation of primary neuroblastoma spheroids in a dose dependent manner”, the secondary spheroid formation [6] was “significantly inhibited secondary spheroid formation” and the “cleaved caspase-3 signal in sox2-expressing cells of spheroids” value [7] was “induced apoptotic death in spheroids”. For the same molecule, the “size of the subcutaneous tumor vs control” value [8] was “less” and the “cytoplasmic cleaved caspase-3 signals in tumor tissues” value [9] was “present”.
